Experimental data as given in publication PMC10249096, “Design, Synthesis, and Evaluation of a New Series of Hydrazones as Small-Molecule Akt Inhibitors for NSCLC Therapy” (ACS Omega, 2023).
Read-outs that look alike come from different tables or passages of the source.

Experiments:
[1] = test system: A549 human lung adenocarcinoma cells; assay: MTT test, cytotoxicity on A549 cells; type: cell-based; conditions: triplicate, read-out: IC50 A549 cell line
Method: (§1) A549 and L929 cell lines were purchased from American Type Culture Collection (Manassas, VA, USA). Cells were cultured, and drug treatments were performed as previously explained.[46]
(§2) MTT assay was conducted as previously described[47] with slight modifications.[48] Cisplatin was used as a positive control. The assay was performed in triplicate. Half-maximal inhibitory concentration (IC50) data (μM) were expressed as mean ± SD.

[2] = test system: L929 mouse embryonic fibroblast cells; assay: MTT test, cytotoxicity on L929 cells; type: cell-based; conditions: mean ± SD, triplicate, read-out: IC50 L929 cell line
Method: as §1, §2

[3] = test system: Akt; assay: Akt Colorimetric In-Cell ELISA, Akt inhibition in A549 cells; type: cell-based, human; conditions: 24 h; for IC50: A549 cell line, mean ± SD, triplicate, read-out: Akt inhibitory effect IC50
Method: The assay was performed in triplicate. IC50 data (μM) were expressed as mean ± SD.

[4] = test system: A549 cells; assay: Annexin V FITC/PI flow cytometric analysis of apoptosis; conditions: 24 h, each agent at its IC50 (3a 91.35, 3e 176.23, 3g 46.60, 3i 83.59, cisplatin 23.89 μM)

Row | SMILES | melting point [°C] | IC50 ([1]; Homo sapiens, A549, mean ± SD) [µM] | IC50 [2] [µM] | IC50 [3] [µM] | IC50 ([1]; mean ± SD) [µM] | early apoptosis (%) [4] [%] | late apoptosis (%) [4] [%] | necrosis (%) [4] [%] | Akt inhibition ([3]; A549 cells, at 91.35 μM) [%] | inhibitory effect on Akt (in words) ([3]; A549 cells, 11.65, 23.30 and 46.60 μM)
1 | O=C(CSc1nc2cc(Cl)ccc2o1)NN=Cc1ccc(N(CCCl)CCCl)cc1 [Compound 3c, N′-[4-(Bis(2-chloroethyl)amino)benzylidene]-2-[(5-chlorobenzoxazol-2-yl)thio]acetohydrazide] | 155 to 156 | > 500 | > 500 |  |  |  |  |  |  | 
2 | CCn1c(-c2nonc2N)nc2c(C#CC(C)(C)O)ncc(OC[C@H]3CCCNC3)c21 [GSK690693, reference compound] |  |  |  | 5.93 ± 1.2 |  |  |  |  |  | 
3 | N.N.[Cl][Pt][Cl] [Cisplatin, reference compound] |  |  |  | 8.09 ± 0.63 | 23.9 ± 2.71 | 3.61 | 3.14 | 0.98 |  | 
4 | O=C(CSc1nc2cc(Cl)ccc2o1)NN=Cc1ccc(N2CCOCC2)cc1 [Compound 3f, N′-[4-(Morpholin-4-yl)benzylidene]-2-[(5-chlorobenzoxazol-2-yl)thio]acetohydrazide] | 209 to 210 | 251 ± 45.9 | > 500 |  |  |  |  |  |  | 
5 | O=C(CSc1nc2cc(Cl)ccc2o1)NN=Cc1ccc(N2CCCC2)cc1 [Compound 3h, N′-[4-(Pyrrolidin-1-yl)benzylidene]-2-[(5-chlorobenzoxazol-2-yl)thio]acetohydrazide] | 206 to 207 | > 500 | > 500 |  |  |  |  |  |  | 
6 | O=C(CSc1nc2cc(Cl)ccc2o1)NN=Cc1ccc(N2CCCCC2)cc1 [Compound 3e, N′-[4-(Piperidin-1-yl)benzylidene]-2-[(5-chlorobenzoxazol-2-yl)thio]acetohydrazide] |  | 176 ± 56.5 | > 500 | 106 ± 53.7 |  | 3.26 | 1.76 | 3.79 |  | 
7 | O=C(CSc1nc2cc(Cl)ccc2o1)NN=Cc1ccc(-n2cncn2)cc1 [Compound 3j, N′-[4-(1H-1,2,4-Triazol-1-yl)benzylidene]-2-[(5-chlorobenzoxazol-2-yl)thio]acetohydrazide] | 256 to 257 | > 500 | > 500 |  |  |  |  |  |  | 
8 | CN1CCN(c2ccc(C=NNC(=O)CSc3nc4cc(Cl)ccc4o3)cc2)CC1 [Compound 3g, N′-[4-(4-Methylpiperazin-1-yl)benzylidene]-2-[(5-chlorobenzoxazol-2-yl)thio]acetohydrazide] | 178 to 179 | 46.6 ± 6.15 | 277 ± 28.9 |  |  | 7.13 | 12.17 | 0.78 |  | did not exert any inhibitory effect
9 | NNC(=O)CSc1nc2cc(Cl)ccc2o1 [Compound 2, 2-[(5-Chlorobenzoxazol-2-yl)thio]acetohydrazide] | 159 to 161 | > 500 | > 500 |  |  |  |  |  |  | 

Continued, in another order:

Row | melting point [°C] | SMILES | IC50 ([1]; Homo sapiens, A549, mean ± SD) [µM] | IC50 [2] [µM] | IC50 [3] [µM] | IC50 ([1]; mean ± SD) [µM] | early apoptosis (%) [4] [%] | late apoptosis (%) [4] [%] | necrosis (%) [4] [%] | Akt inhibition ([3]; A549 cells, at 91.35 μM) [%] | inhibitory effect on Akt (in words) ([3]; A549 cells, 11.65, 23.30 and 46.60 μM)
10 | 172 to 173 | CCN(CC)c1ccc(C=NNC(=O)CSc2nc3cc(Cl)ccc3o2)cc1 [Compound 3b, N′-(4-Diethylaminobenzylidene)-2-[(5-chlorobenzoxazol-2-yl)thio]acetohydrazide] | 410 ± 220 | > 500 |  |  |  |  |  |  | 
11 | 229 to 231 | O=C(CSc1nc2cc(Cl)ccc2o1)NN=Cc1ccc(-n2ccnc2)cc1 [Compound 3i, N′-[4-(1H-Imidazol-1-yl)benzylidene]-2-[(5-chlorobenzoxazol-2-yl)thio]acetohydrazide] | 83.6 ± 7.3 | > 500 | 69.5 ± 1.48 |  | 2.70 | 6.04 | 3.51 |  | 
12 | 237 to 239 | O=C(CSc1nc2cc(Cl)ccc2o1)NN=Cc1ccc([N+](=O)[O-])cc1 [Compound 3d, N′-(4-Nitrobenzylidene)-2-[(5-chlorobenzoxazol-2-yl)thio]acetohydrazide] | > 500 | > 500 |  |  |  |  |  |  | 
13 | 197 to 199 | CN(C)c1ccc(C=NNC(=O)CSc2nc3cc(Cl)ccc3o2)cc1 [Compound 3a, N′-(4-Dimethylaminobenzylidene)-2-[(5-chlorobenzoxazol-2-yl)thio]acetohydrazide] | 91.4 ± 21.9 | > 500 |  |  | 11.22 | 4.97 | 0.79 | 35.40 ± 13.36 | 
